US20260199282A1, “METHODS AND COMPOSITIONS FOR IMPROVING DRIVING PERFORMANCE” (priority 2022, published 2026)
Several values for one entry are separate records, joined by “and”; a condition that tells them apart may be missing. Equal entries are not always repeated.

Assays:
[1] = tested on: participants with narcolepsy; test: Standardized on-road driving test, narcolepsy study; format: in vivo, human; settings: for SDLP, observed mean (SD) / SDLP, median / SDLP, median difference (range), solriamfetol - placebo: day 7, 300 mg/day; for SDLP, median / SDLP, median difference (range), solriamfetol - placebo: mITT
Method: In this randomized, double-blind, placebo-controlled, crossover study, driving performance during a 1-hour on-road driving test was assessed at 2 hours and 6 hours post-dose following 7 days of treatment with solriamfetol (150 mg/day for 3 days, followed by 300 mg/day for 4 days) or placebo. The primary endpoint was standard deviation of lateral position (SDLP) at 2 hours post-dose.
At the end of each treatment period, a standardized on-road driving test (Verster & Roth, 2011) was conducted at 2 hours and at 6 hours after administration of drug or placebo (FIG. 1A). For each test (~1 hour in duration), participants drove a specially instrumented vehicle over a 100 km (~62 miles) primary highway circuit; they were accompanied by a licensed driving instructor with access to dual controls (brakes, clutch, accelerator). Participants were instructed to maintain both a steady lateral position between the delineated boundaries of the slower (right) traffic lane and a constant speed of 95 km/h (~59 mph). Participants were permitted to deviate from these instructions only to pass a slower vehicle, to respond to slower traffic ahead, or to exit and reenter the highway at the turnaround point (these events were removed for the purpose of data analysis by 2 experienced editors of the driving data). Vehicle speed and lateral distance to the left-lane line were continuously recorded, and the data stored on an onboard computer. The driving test could be stopped by the participant or by the accompanying driving instructor if considered it unsafe to continue.
The primary outcome assessment from the driving tests was standard deviation of lateral position (SDLP) in centimeters—a measure of “weaving” or road-tracking control (Ramaekers, 2017; Verster & Roth, 2011). […] Standard deviation of speed and number of lane drifts (defined as deviations>100 cm from the absolute lateral position within an 8-second window) were also determined from driving test data.
Change in SDLP was analyzed with a repeated mixed-effects analysis of variance (ANOVA).
Maximally selected McNemar symmetry analyses (Laska, Meisner, & Wanderling, 2012) were used to detect asymmetry in the distribution of the change in driving performance at 2 hours and 6 hours post-dose. Single McNemar tests were used to analyze the difference in proportions of participants with improved or impaired driving performance at relevant thresholds. Thresholds of 1.0, 1.5, 2.0, 2.5, 3.0, and 3.5 cm were used.
Additional secondary efficacy measures (standard deviation of speed, number of lane drifts, and THAT scores) were analyzed using a similar ANOVA method as described for SDLP. No multiplicity adjustments were made in the efficacy analyses for multiple endpoints, and all p values are therefore nominal.

[2] = tested on: subjects with EDS due to OSA; test: Safety / adverse events, OSA study; format: in vivo, human
Method: The incidence of treatment-emergent adverse events was summarized by treatment. Descriptive statistics were presented for vital sign results. No formal statistical testing was performed for the safety analyses.
The use of vital signs, clinical laboratory tests, standard AE reporting, and the questionnaires that were selected to assess the safety of the study drug were appropriate since they are routinely used to assess the safety profile of drugs in clinical studies and pertinent to known risks of solriamfetol. The C-SSRS is able to determine clinically meaningful points at which a person may be at risk for an impending suicide attempt (Posner 2011).

[3] = tested on: participants with narcolepsy; design: species or system human; settings: in vivo

Structure (SMILES): NC(=O)OC[C@H](N)Cc1ccccc1 [Solriamfetol, (R)-2-amino-3-phenylpropyl carbamate]
- maximum McNemar test, improved vs impaired driving ([1]; 2 hours and 6 hours post-dose, thresholds 1.0 to 3.5 cm): did not show asymmetry
- number of lane drifts, LS mean (SE) ([1]; 2 hours post-dose): 2.3 (0.8)
- number of lane drifts, LS mean difference vs placebo ([1]; 2 hours post-dose): −0.98
- standard deviation of speed, LS mean (SE) ([1]; 2 hours post-dose): 2.8 (0.2) km/h
- standard deviation of speed, LS mean difference vs placebo ([1]; 2 hours post-dose): −0.22 km/h
- SDLP, observed mean (SD) ([1]; 2 hours post-dose): 19.0 (3.6) cm and 18.97 cm
- SDLP, median ([1]; 2 hours post-dose): 19.08 cm
- SDLP, median difference (range), solriamfetol - placebo ([1]; 2 hours post-dose): −1.9 (−6.7 to 2.6) cm
- SDLP, median difference (range), solriamfetol - placebo ([1]; 2 hours post-dose, listed as solriamfetol): −1.9 cm and −1.90 cm
- participants with incomplete driving tests ([1]; 2 hours post-dose, on solriamfetol): Four
- number of lane drifts, LS mean (SE) ([1]; 6 hours post-dose): 3.6 (0.8)
- number of lane drifts, LS mean difference vs placebo ([1]; 6 hours post-dose): −0.08
- standard deviation of speed, LS mean (SE) ([1]; 6 hours post-dose): 3.1 (0.2) km/h
- standard deviation of speed, LS mean difference vs placebo ([1]; 6 hours post-dose): −0.11 km/h
- SDLP, observed mean (SD) ([1]; 6 hours post-dose): 19.8 (3.5) cm
- SDLP, median ([1]; 6 hours post-dose): 19.59 cm
- SDLP, median difference (range), solriamfetol - placebo ([1]; 6 hours post-dose): −1.1 (−12.1 to 6.0) cm
- SDLP, median difference (range), solriamfetol - placebo ([1]; 6 hours post-dose, listed as solriamfetol): −1.1 cm
- participants with incomplete driving tests ([1]; 6 hours post-dose, on solriamfetol): Three
- driving tests stopped ([1]; on solriamfetol, 7/44 tests): 16%
- participants with ≥1 incomplete test ([1]; while on solriamfetol, either time point): 5
- subjects with TEAE considered related to study treatment ([2]; after receiving solriamfetol): 35.3%
- serious or fatal TEAEs ([2]; in vivo): no serious nor fatal TEAEs
- subjects with TEAE related or suspected related to study drug, n (%) ([2]; received solriamfetol): 12 (35.3%)
- subjects experiencing TEAEs, n (%) ([2]; receiving solriamfetol): 17 (50.0%)
- PVT errors, LS mean (SE) [3]: 1.11 (0.42) n/trial and 1.39 (0.42) n/trial and 1.34 (0.32) n/trial
- PVT inverse reaction time, LS mean (SE) [3]: 3.41 (0.07) 1/ms and 3.80 (0.07) 1/ms and 3.72 (0.07) 1/ms
- PVT lapses, LS mean (SE) [3]: 6.63 (1.61) n/trial and 3.35 (1.61) n/trial and 4.52 (1.61) n/trial
- PVT mean reaction time, LS mean (SE) [3]: 582 (148.4) ms and 317 (148.4) ms and 319 (148.4) ms
